Series [1] deals with T1, mGluR5 (Homo sapiens, UniProt P41594). Briefly: mGluR5 PAM EC50 (positive allosteric modulator potency). The format is cell-based.
Series [2] addresses T1, mGluR5. Nature of the series: mGluR5 fold shift at a fixed compound concentration. The following applies: at 1 μM. The format is cell-based.

The values that follow come from patent US9708331B2, “Metabotrophic glutamate receptor 5 modulators and methods of use thereof” (SUNOVION PHARMACEUTICALS INC., priority 2011, dated 2017).

T1 sequence (P41594 21-1212): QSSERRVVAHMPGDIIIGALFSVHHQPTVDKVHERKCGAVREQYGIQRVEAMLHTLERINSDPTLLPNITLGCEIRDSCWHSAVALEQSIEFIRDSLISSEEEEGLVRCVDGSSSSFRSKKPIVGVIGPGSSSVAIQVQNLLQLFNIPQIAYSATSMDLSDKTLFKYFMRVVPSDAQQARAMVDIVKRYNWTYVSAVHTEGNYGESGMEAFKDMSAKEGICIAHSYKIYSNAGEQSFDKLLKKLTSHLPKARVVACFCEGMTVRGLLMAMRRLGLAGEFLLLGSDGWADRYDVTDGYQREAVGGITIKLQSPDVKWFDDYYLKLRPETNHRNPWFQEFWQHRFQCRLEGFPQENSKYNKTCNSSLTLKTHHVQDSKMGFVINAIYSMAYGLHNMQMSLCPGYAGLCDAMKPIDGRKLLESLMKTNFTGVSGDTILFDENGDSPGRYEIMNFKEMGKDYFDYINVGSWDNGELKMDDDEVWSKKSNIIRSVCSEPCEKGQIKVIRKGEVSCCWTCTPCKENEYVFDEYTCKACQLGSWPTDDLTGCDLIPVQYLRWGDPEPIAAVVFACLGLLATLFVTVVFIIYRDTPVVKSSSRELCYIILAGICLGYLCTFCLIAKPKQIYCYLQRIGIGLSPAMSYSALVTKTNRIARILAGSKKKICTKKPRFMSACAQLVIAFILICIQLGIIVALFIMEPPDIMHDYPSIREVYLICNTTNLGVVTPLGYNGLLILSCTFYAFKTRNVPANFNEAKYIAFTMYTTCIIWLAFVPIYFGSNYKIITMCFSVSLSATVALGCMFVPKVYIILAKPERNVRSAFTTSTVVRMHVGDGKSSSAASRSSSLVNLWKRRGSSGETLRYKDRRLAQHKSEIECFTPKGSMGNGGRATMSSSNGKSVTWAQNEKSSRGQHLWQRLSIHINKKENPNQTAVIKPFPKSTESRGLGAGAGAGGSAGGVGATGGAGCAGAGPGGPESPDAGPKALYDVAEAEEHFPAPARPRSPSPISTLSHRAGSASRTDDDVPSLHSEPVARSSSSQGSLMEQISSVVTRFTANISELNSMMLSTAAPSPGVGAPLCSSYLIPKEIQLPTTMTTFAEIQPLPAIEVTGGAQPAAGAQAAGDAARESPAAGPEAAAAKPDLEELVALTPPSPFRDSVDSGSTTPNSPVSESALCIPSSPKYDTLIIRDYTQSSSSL

A word on the EC50: it is the concentration giving half of the maximal effect. The low end stands for a more potent agent, the high end for a less potent agent. `COC(C)(C)C1Cc2nc3cc(C#Cc4ccccn4)ccc3c(=O)n2C1` (centres unmarked) [Example 1.4, 2-(2-methoxypropan-2-yl)-6-(pyridin-2-ylethynyl)-2,3-dihydropyrrolo[2,1-b]quinazolin-9(1H)-one] showed an EC50 on mGluR5 [1] of 10 to 30 nM. In addition, the “Fold shift at 1 μM” value at mGluR5 [2] is recorded as “+++ (+++>3)”.

Take `O=c1c2ccc(C#Cc3ccccn3)cc2nc2n1CC1(CCC1)C2` [Example 1.7, 6′-(pyridin-2-ylethynyl)-1′H-spiro[cyclobutane-1,2′-pyrrolo[2,1-b]quinazolin]-9′(3′H)-one]: the EC50 on mGluR5 [1] was in the range of 10 to 30 nM. For the same molecule, the “Fold shift at 1 μM” value at mGluR5 [2] is reported as “+++ (+++>3)”.

As for `CCC1(C)Cc2nc3cc(C#Cc4ccccn4)ccc3c(=O)n2C1` (centres unmarked) [Example 1.10, 2-ethyl-2-methyl-6-(pyridin-2-ylethynyl)-2,3-dihydropyrrolo[2,1-b]quinazolin-9(1H)-one], the EC50 on mGluR5 [1] is 10 to 30 nM. In addition, at mGluR5 [2], the “Fold shift at 1 μM” value was “+++ (+++>3)”.

The molecule `CC1(C)Cc2nc3cc(C#Cc4ccccn4)ccc3c(=O)n2O1` [Example 1.15, 2,2-dimethyl-6-(pyridin-2-ylethynyl)-2H-isoxazolo[3,2-b]quinazolin-9(3H)-one] registered an EC50 on mGluR5 [1] of 30 to 100 nM. Besides, the “Fold shift at 1 μM” value at mGluR5 [2] was “+ (+ is between 1.5 and 1.9)”.

`CCC1(C)Cc2nc3cc(C#Cc4ccccn4)cnc3c(=O)n2C1` (centres unmarked) [Example 1.19, 7-ethyl-7-methyl-3-(pyridin-2-ylethynyl)-7,8-dihydropyrido[3,2-d]pyrrolo[1,2-a]pyrimidin-10(6H)-one]: at mGluR5 [1], the EC50 was 30 to 100 nM. Further, the “Fold shift at 1 μM” value on mGluR5 [2] is “++ (++ is between 2.0 and 2.9)”.

`CC1(C)COc2nc3cc(C#Cc4ccccn4)ccc3c(=O)n2C1` [Example 2.29, 3,3-dimethyl-9-(pyridin-2-ylethynyl)-3,4-dihydro-[1,3]oxazino[2,3-b]quinazolin-6(2H)-one] displayed an EC50 on mGluR5 [1] of 10 to 30 nM. Also, the “Fold shift at 1 μM” value at mGluR5 [2] is given as “+++ (+++>3)”.

Regarding `CC1(C)CCc2nc3c(F)c(C#Cc4ccccn4)ccc3c(=O)n2C1` [Example 2.30b, 4-fluoro-8,8-dimethyl-3-(pyridin-2-ylethynyl)-8,9-dihydro-6H-pyrido[2,1-b]quinazolin-11(7H)-one], the EC50 on mGluR5 [1] is 10 to 30 nM. For the same molecule, on mGluR5 [2], the “Fold shift at 1 μM” value was “+++ (+++>3)”.

Take `CC1(C)CCc2nc3cc(C#Cc4ccccc4)ccc3c(=O)n2C1` [Example 2.37, 8,8-dimethyl-3-(phenylethynyl)-8,9-dihydro-6H-pyrido[2,1-b]quinazolin-11(7H)-one]: at mGluR5 [1], the EC50 is less than 10 nM. Also, at mGluR5 [2], the “Fold shift at 1 μM” value was “++ (++ is between 2.0 and 2.9)”.

For the molecule `Cc1cccc(C#Cc2ccc3c(=O)n4c(nc3c2)CCC(C)(C)C4)n1` [Example 2.41, 8,8-dimethyl-3-((6-methylpyridin-2-yl)ethynyl)-8,9-dihydro-6H-pyrido[2,1-b]quinazolin-11(7H)-one], the EC50 on mGluR5 [1] was 10 to 30 nM. The “Fold shift at 1 μM” value on mGluR5 [2] is “+++ (+++>3)”.

At mGluR5 [1], `CC1(C)CCc2nc3cc(C#Cc4ccc(Cl)cn4)ccc3c(=O)n2C1` [Example 2.42, 3-((5-chloropyridin-2-yl)ethynyl)-8,8-dimethyl-8,9-dihydro-6H-pyrido[2,1-b]quinazolin-11(7H)-one] registered an EC50 of less than 10 nM. For the same molecule, the “Fold shift at 1 μM” value on mGluR5 [2] is on record as “+++ (+++>3)”.

`CC1(C)CCc2nc3cc(C#Cc4ccc(F)cn4)ccc3c(=O)n2C1` [Example 2.43, 3-((5-fluoropyridin-2-yl)ethynyl)-8,8-dimethyl-8,9-dihydro-6H-pyrido[2,1-b]quinazolin-11(7H)-one] displayed an EC50 at mGluR5 [1] of less than 10 nM. Besides, the “Fold shift at 1 μM” value at mGluR5 [2] is “++ (++ is between 2.0 and 2.9)”.

Consider `Cc1cccc(C#Cc2ccc3c(=O)n4c(nc3c2)CCC(C)(C)C4)c1` [Example 2.44, 8,8-dimethyl-3-(m-tolylethynyl)-8,9-dihydro-6H-pyrido[2,1-b]quinazolin-11(7H)-one], for which the EC50 at mGluR5 [1] is less than 10 nM. For the same molecule, the “Fold shift at 1 μM” value at mGluR5 [2] is recorded as “+++ (+++>3)”.

At mGluR5 [1], `CC1(C)CCc2nc3cc(C#Cc4cccc(C#N)c4)ccc3c(=O)n2C1` [Example 2.45, 3-((8,8-dimethyl-11-oxo-7,8,9,11-tetrahydro-6H-pyrido[2,1-b]quinazolin-3-yl)ethynyl)benzonitrile] registered an EC50 of 10 to 30 nM. Besides, the “Fold shift at 1 μM” value on mGluR5 [2] was “++ (++ is between 2.0 and 2.9)”.

Take `Cc1ncc(C#Cc2ccc3c(=O)n4c(nc3c2)CCC(C)(C)C4)s1` [Example 2.49, 8,8-dimethyl-3-((2-methylthiazol-5-yl)ethynyl)-8,9-dihydro-6H-pyrido[2,1-b]quinazolin-11(7H)-one]: on mGluR5 [1], the EC50 is less than 10 nM. The “Fold shift at 1 μM” value at mGluR5 [2] is “++ (++ is between 2.0 and 2.9)”.

Regarding `O=c1c2ccc(C#Cc3ccccn3)cc2nc2n1CC1(CC2)COC1` [Example 2.58, 3′-(pyridin-2-ylethynyl)-6′,7′-dihydrospiro[oxetane-3,8′-pyrido[2,1-b]quinazolin]-11′(9′H)-one], the EC50 at mGluR5 [1] fell in the range of 10 to 30 nM. Further, the “Fold shift at 1 μM” value on mGluR5 [2] is on record as “+++ (+++>3)”.

On mGluR5 [1], `O=c1c2ccc(C#Cc3ccccn3)cc2nc2n1CC1(CC2)CC1(F)F` (centres unmarked) [Example 2.68, 2,2-difluoro-3′-(pyridin-2-ylethynyl)-6′,7′-dihydrospiro[cyclopropane-1,8′-pyrido[2,1-b]quinazolin]-11′(9′H)-one] showed an EC50 of less than 10 nM. Also, the “Fold shift at 1 μM” value on mGluR5 [2] is “+++ (+++>3)”.

In turn, `CC12Cn3c(nc4cc(C#Cc5ccccn5)ccc4c3=O)CC1C2(F)F` (centres unmarked) [Example 2.69, 1,1-difluoro-10a-methyl-5-(pyridin-2-ylethynyl)-1a,2,10,10a-tetrahydrocyclopropa[4,5]pyrido [2,1-b]quinazolin-8(1H)-one] came in with a 50% effective concentration (EC50) on mGluR5 [1] of less than 10 nM. For the same molecule, the “Fold shift at 1 μM” value at mGluR5 [2] is “+++ (+++>3)”.

The molecule `CC1(CF)CCc2nc3cc(C#Cc4ccccn4)ccc3c(=O)n2C1` (centres unmarked) [Example 2.96, 8-(fluoromethyl)-8-methyl-3-(pyridin-2-ylethynyl)-8,9-dihydro-6H-pyrido[2,1-b]quinazolin-11(7H)-one] gave an EC50 on mGluR5 [1] of less than 10 nM. In addition, the “Fold shift at 1 μM” value on mGluR5 [2] is given as “+++ (+++>3)”.

For the molecule `COCC1(C)CCc2nc3cc(C#Cc4ccccn4)ccc3c(=O)n2C1` (centres unmarked) [Example 2.97, 8-(methoxymethyl)-8-methyl-3-(pyridin-2-ylethynyl)-8,9-dihydro-6H-pyrido[2,1-b]quinazolin-11(7H)-one], the EC50 on mGluR5 [1] was in the range of 10 to 30 nM. At mGluR5 [2], the “Fold shift at 1 μM” value is on record as “+++ (+++>3)”.

The molecule `CC12Cc3nc4cc(C#Cc5ccccn5)ccc4c(=O)n3CC1C2` (centres unmarked) [Example 2.98, 1a-methyl-5-(pyridin-2-ylethynyl)-1a,2,10,10a-tetrahydrocyclopropa[4,5]pyrido [2,1-b]quinazolin-8(1H)-one] came in with an EC50 on mGluR5 [1] of less than 10 nM. Also, the “Fold shift at 1 μM” value at mGluR5 [2] was “+++ (+++>3)”.

Turning to `COc1cccc(C#Cc2ccc3c(=O)n4c(nc3c2)CCC(C)(C)C4)n1` [Example 2.101, 3-((6-methoxypyridin-2-yl)ethynyl)-8,8-dimethyl-8,9-dihydro-6H-pyrido[2,1-b]quinazolin-11(7H)-one], the EC50 on mGluR5 [1] is 30 to 100 nM. The “Fold shift at 1 μM” value on mGluR5 [2] is “++ (++ is between 2.0 and 2.9)”.

`COc1ccnc(C#Cc2ccc3c(=O)n4c(nc3c2)CCC(C)(C)C4)c1` [Example 2.102, 3-((4-methoxypyridin-2-yl)ethynyl)-8,8-dimethyl-8,9-dihydro-6H-pyrido[2,1-b]quinazolin-11(7H)-one] yielded an EC50 at mGluR5 [1] of 30 to 100 nM. Moreover, the “Fold shift at 1 μM” value on mGluR5 [2] was “+ (+ is between 1.5 and 1.9)”.
